Laboratory results: PubChem BioAssay AID330 (DTP/NCI, 2004)
“And” between values parts separate entries of the source, which are not always exact repeats. Identical values can stand only once. Inconclusive results and toxic doses are left out. Peptide text beside a SMILES is read from it. * marks the point of attachment. Trt = c1ccc(C(c2ccccc2)(c2ccccc2)*)cc1; Cbz = O=C(OCc1ccccc1)*; Bn = c1ccc(C*)cc1; βAla = NCCC(=O)O

Test system: P388 leukemia ip, CD2F1 mice, survival T/C
Assay: NCI In Vivo Anticancer Drug Screen. Data for tumor model P388 Leukemia (intraperitoneal) in CD2F1 (CDF1) mice
Conditions: endpoint: median survival time, higher = longer survival
Procedure, shortened: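 Mice carrying the transplanted tumor received test compound or vehicle. Survival was recorded in each group, and the value is the treated-group measurement divided by that of the vehicle-treated control group.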

[1] = dose: 12.5 mg/kg/injection, schedule: Q01DX005 (ip), vehicle: Klucel (hydroxypropylcellulose) (HPC)
[2] = dose: 25.0 mg/kg/injection, schedule: Q01DX005 (ip), vehicle: Klucel (hydroxypropylcellulose) (HPC)
[3] = dose: 50.0 mg/kg/injection, schedule: Q01DX005 (ip), vehicle: Klucel (hydroxypropylcellulose) (HPC)
[4] = dose: 100.0 mg/kg/injection, schedule: Q01DX005 (ip), vehicle: Klucel (hydroxypropylcellulose) (HPC)
[5] = dose: 200.0 mg/kg/injection, schedule: Q01DX005 (ip), vehicle: Klucel (hydroxypropylcellulose) (HPC)
[6] = dose: 25.0 mg/kg/injection, schedule: Q01DX009 (ip), vehicle: Klucel (hydroxypropylcellulose) (HPC)
[7] = dose: 50.0 mg/kg/injection, schedule: Q01DX009 (ip), vehicle: Klucel (hydroxypropylcellulose) (HPC)
[8] = dose: 100.0 mg/kg/injection, schedule: Q01DX009 (ip), vehicle: Klucel (hydroxypropylcellulose) (HPC)
[9] = dose: 200.0 mg/kg/injection, schedule: Q01DX009 (ip), vehicle: Klucel (hydroxypropylcellulose) (HPC)
[10] = dose: 60.0 mg/kg/injection, schedule: Q01DX005 (ip), vehicle: Klucel (hydroxypropylcellulose) (HPC)
[11] = dose: 120.0 mg/kg/injection, schedule: Q01DX005 (ip), vehicle: Klucel (hydroxypropylcellulose) (HPC)
[12] = dose: 240.0 mg/kg/injection, schedule: Q01DX005 (ip), vehicle: Klucel (hydroxypropylcellulose) (HPC)
[13] = dose: 50.0 mg/kg/injection, schedule: Q01DX005 (ip), vehicle: saline with Tween-80
[14] = dose: 100.0 mg/kg/injection, schedule: Q01DX005 (ip), vehicle: saline with Tween-80
[15] = dose: 50.0 mg/kg/injection, schedule: Q01DX005 (ip), vehicle: saline
[16] = dose: 30.0 mg/kg/injection, schedule: Q01DX005 (ip), vehicle: saline with Tween-80
[17] = dose: 60.0 mg/kg/injection, schedule: Q01DX005 (ip), vehicle: saline with Tween-80
[18] = dose: 120.0 mg/kg/injection, schedule: Q01DX005 (ip), vehicle: saline with Tween-80
[19] = dose: 12.5 mg/kg/injection, schedule: Q01DX009 (ip), vehicle: Klucel (hydroxypropylcellulose) (HPC)
[20] = dose: 50.0 mg/kg/injection, schedule: Q01DX009 (ip), vehicle: saline with Tween-80
[21] = dose: 100.0 mg/kg/injection, schedule: Q01DX009 (ip), vehicle: saline with Tween-80
[22] = dose: 200.0 mg/kg/injection, schedule: Q01DX009 (ip), vehicle: saline with Tween-80
[23] = dose: 12.5 mg/kg/injection, schedule: Q01DX009 (ip), vehicle: saline with Tween-80
[24] = dose: 100.0 mg/kg/injection, schedule: Q04DX003 (ip), vehicle: saline with Tween-80

COC(=O)C(CSC(c1ccccc1)(c1ccccc1)c1ccccc1)NC(=O)C(CSCc1ccccc1)NC(=O)CCNC(=O)OCc1ccccc1 (configuration not stated) ({Cbz-βAla}-Cys(Bn)-Cys(Trt)-OMe; configuration not given here)
T/C (dose: 4.0 mg/kg/injection, schedule: Q01DX009 (ip), vehicle: water): 102 % of control
T/C (dose: 8.0 mg/kg/injection, schedule: Q01DX009 (ip), vehicle: water): 100 % of control
T/C [1]: 99 % of control
T/C (dose: 16.0 mg/kg/injection, schedule: Q01DX009 (ip), vehicle: water): 99 % of control
T/C [2]: 102 % of control
T/C (dose: 32.0 mg/kg/injection, schedule: Q01DX009 (ip), vehicle: water): 99 % of control
T/C [3]: 102 % of control
T/C (dose: 64.0 mg/kg/injection, schedule: Q01DX009 (ip), vehicle: water): 89 % of control
T/C [4]: 102 % of control
T/C (dose: 128.0 mg/kg/injection, schedule: Q01DX009 (ip), vehicle: water): 86 % of control
T/C [5]: 103 % of control

Cc1ccnc(NC(O)C(Cl)(Cl)Cl)c1 (configuration not stated)
T/C [6]: 100 % of control
T/C [7]: 100 % of control
T/C [8]: 98 % of control
T/C [9]: 100 % of control

CCCCN(CCC#N)C(N)=O
T/C [3]: 100 % of control
T/C [4]: 100 % of control
T/C [5]: 100 % of control

C1=CC(=CN2CCc3ccccc3C2)C=C1
T/C [10]: 101 % of control
T/C [11]: 102 % of control
T/C [12]: 103 % of control

CN(Cc1ccc2nc(N)[nH]c(=O)c2c1)c1ccc(C(=O)NC(CCC(=O)O)C(=O)O)cc1 (configuration not stated)
T/C [13]: 95 % of control
T/C [14]: 102 % of control

CC(C)=C(C#N)NC(C)(C)C
T/C (dose: 12.5 mg/kg/injection, schedule: Q01DX009 (ip), vehicle: saline): 101 % of control
T/C (dose: 25.0 mg/kg/injection, schedule: Q01DX009 (ip), vehicle: saline): 100 % of control
T/C (dose: 50.0 mg/kg/injection, schedule: Q01DX009 (ip), vehicle: saline): 98 % of control and 94 % of control

COc1ccc(C(C)c2cc(N=O)c(OC)cc2O)cc1 (configuration not stated)
T/C (dose: 12.5 mg/kg/injection, schedule: Q01DX005 (ip), vehicle: saline with Tween-80): 91 % of control
T/C (dose: 25.0 mg/kg/injection, schedule: Q01DX005 (ip), vehicle: saline with Tween-80): 94 % of control
T/C [13]: 92 % of control and 96 % of control

O=c1[nH]cnc2nc(/N=N/SCCO)[nH]c12
T/C [2]: 104 % of control
T/C [3]: 110 % of control
T/C [4]: 119 % of control

CCCCC(C)N(CCNc1cc(OC)cc2cccnc12)CC(C)C (configuration not stated)
T/C (dose: 12.5 mg/kg/injection, schedule: Q01DX005 (ip), vehicle: saline): 106 % of control
T/C (dose: 25.0 mg/kg/injection, schedule: Q01DX005 (ip), vehicle: saline): 101 % of control
T/C [15]: 106 % of control and 97 % of control

O=C1SC(=NC2CCCCC2)N(C2CCCCC2)/C1=C1\C(=O)SC(=NC2CCCCC2)N1C1CCCCC1
T/C (dose: 15.0 mg/kg/injection, schedule: Q01DX005 (ip), vehicle: saline with Tween-80): 92 % of control
T/C [16]: 90 % of control

COc1ccc2oc3c(ccc[n+]3C)c(=O)c2c1
T/C [16]: 107 % of control
T/C [17]: 120 % of control
T/C [18]: 107 % of control

COc1cc2ccc(CCNCc3ccccc3)cc2cc1OC
T/C [19]: 95 % of control
T/C [6]: 94 % of control
T/C [7]: 95 % of control
T/C [8]: 90 % of control

O=[N+]([O-])C1C=Nc2ccccc2N=C1
T/C [7]: 105 % of control
T/C [8]: 97 % of control
T/C [9]: 97 % of control
T/C (dose: 400.0 mg/kg/injection, schedule: Q01DX009 (ip), vehicle: Klucel (hydroxypropylcellulose) (HPC)): 96 % of control

CC(=O)C1=CC[C@H]2[C@@H]3C=CC4=CC(=O)CC[C@]4(C)[C@H]3C[C@@H](O)[C@]12C
T/C [1]: 99 % of control
T/C [2]: 96 % of control
T/C [3]: 107 % of control
T/C [4]: 99 % of control
T/C [5]: 106 % of control

Cc1nnc2c3nccnc3c(N)nn12
T/C [17]: 96 % of control
T/C [18]: 104 % of control
T/C (dose: 240.0 mg/kg/injection, schedule: Q01DX005 (ip), vehicle: saline with Tween-80): 104 % of control

COC(=O)C1=C(C(=O)OC)P2(C)(C)SC(=S)N2C1(c1ccccc1)c1ccccc1
T/C [3]: 102 % of control
T/C [4]: 91 % of control

CC(C)C(Br)C(Br)c1ccccc1 (configuration not stated)
T/C [20]: 100 % of control
T/C [21]: 104 % of control
T/C [22]: 104 % of control

CCOC(=O)c1[nH]c(C#N)c(C(=O)OCC)c1C
T/C [21]: 86 % of control
T/C [22]: 96 % of control
T/C (dose: 400.0 mg/kg/injection, schedule: Q01DX009 (ip), vehicle: saline with Tween-80): 105 % of control

N#C[S-].N#C[S-].N#C[S-].N#C[S-].[Cr+6].[NH2-].[NH2-]
T/C (dose: 25.0 mg/kg/injection, schedule: Q04DX003 (ip), vehicle: saline): 103 % of control
T/C (dose: 50.0 mg/kg/injection, schedule: Q04DX003 (ip), vehicle: saline): 95 % of control

COc1cc2c(c(OC)c1OC)C(=O)/C(=C\c1ccccc1)O2
T/C (dose: 3.13 mg/kg/injection, schedule: Q01DX009 (ip), vehicle: saline with Tween-80): 105 % of control
T/C (dose: 6.25 mg/kg/injection, schedule: Q01DX009 (ip), vehicle: saline with Tween-80): 101 % of control and 102 % of control and 95 % of control
T/C [23]: 100 % of control and 105 % of control and 114 % of control
T/C (dose: 25.0 mg/kg/injection, schedule: Q01DX009 (ip), vehicle: saline with Tween-80): 105 % of control and 121 % of control and 93 % of control
T/C [20]: 118 % of control and 96 % of control

CCCCCC(=O)C(CCCC)(c1nc2n(c1O)C(=N)N=N2)c1nc2n(c1O)C(=N)N=N2 (configuration not stated)
T/C [13]: 107 % of control
T/C [14]: 93 % of control

COc1cc(C2c3cc4c(cc3OC(C)(N3CCCC3)C2C)OCO4)cc(OC)c1OC (configuration not stated)
T/C [10]: 100 % of control
T/C [11]: 102 % of control
T/C [12]: 105 % of control

Cc1ccc(N(CN2C(=O)CCC2=O)CS(=O)(=O)c2ccc(Cl)cc2)cc1
T/C (dose: 15.0 mg/kg/injection, schedule: Q01DX005 (ip), vehicle: Klucel (hydroxypropylcellulose) (HPC)): 107 % of control
T/C (dose: 30.0 mg/kg/injection, schedule: Q01DX005 (ip), vehicle: Klucel (hydroxypropylcellulose) (HPC)): 91 % of control
T/C [10]: 93 % of control and 95 % of control
T/C [12]: 90 % of control

COc1cc(Cc2nccc3cc(OC)c(OC)cc23)c(C(C)=O)cc1OC
T/C (dose: 3.13 mg/kg/injection, schedule: Q01DX009 (ip), vehicle: saline sonified): 123 % of control
T/C [19]: 105 % of control
T/C (dose: 12.5 mg/kg/injection, schedule: Q01DX009 (ip), vehicle: saline sonified): 161 % of control
T/C [6]: 106 % of control
T/C [7]: 113 % of control
T/C [24]: 100 % of control

OC1(c2ccccc2)CSC2=Nc3ccccc3C3CCN1N23 (configuration not stated)
T/C [23]: 108 % of control and 87 % of control
T/C [21]: 122 % of control and 95 % of control
T/C [22]: 99 % of control

CN(C)CCN1C(=O)c2cccc3cc([N+](=O)[O-])cc(c23)C1=O
T/C (dose: 0.78 mg/kg/injection, schedule: Q01DX009 (ip), vehicle: saline with Tween-80): 101 % of control
T/C (dose: 3.12 mg/kg/injection, schedule: Q01DX009 (ip), vehicle: saline with Tween-80): 117 % of control and 124 % of control

O=C1c2cccnc2C(=O)N1Cc1ccccc1
T/C [24]: 95 % of control
T/C (dose: 200.0 mg/kg/injection, schedule: Q04DX003 (ip), vehicle: saline with Tween-80): 95 % of control
T/C (dose: 400.0 mg/kg/injection, schedule: Q04DX003 (ip), vehicle: saline with Tween-80): 90 % of control

C/C=C1\CN2CC[C@H]1C[C@H]2[C@H](O)c1ccnc2ccc(NCCO)cc12
T/C [15]: 94 % of control
T/C (dose: 100.0 mg/kg/injection, schedule: Q01DX005 (ip), vehicle: saline): 99 % of control
T/C (dose: 200.0 mg/kg/injection, schedule: Q01DX005 (ip), vehicle: saline): 99 % of control
